Assay results as given in article PMC12444472, “BCI inhibits MKP3 by targeting the kinase-binding domain and disrupting ERK2 interaction” (The Journal of Biological Chemistry, 2025).
Changes are numbered by the printed parent chain.

Experiments:
[1] = biological target: T1, MKP3^FL (Homo sapiens, UniProt Q16828); assay: Phosphatase activity toward pNPP in the presence of ERK2; type: biochemical
T1 construct: MKP3(1–381) (MKP3^FL); made in house; host or cells: Escherichia coli BL21(DE3)
T1 sequence (Q16828 1-381): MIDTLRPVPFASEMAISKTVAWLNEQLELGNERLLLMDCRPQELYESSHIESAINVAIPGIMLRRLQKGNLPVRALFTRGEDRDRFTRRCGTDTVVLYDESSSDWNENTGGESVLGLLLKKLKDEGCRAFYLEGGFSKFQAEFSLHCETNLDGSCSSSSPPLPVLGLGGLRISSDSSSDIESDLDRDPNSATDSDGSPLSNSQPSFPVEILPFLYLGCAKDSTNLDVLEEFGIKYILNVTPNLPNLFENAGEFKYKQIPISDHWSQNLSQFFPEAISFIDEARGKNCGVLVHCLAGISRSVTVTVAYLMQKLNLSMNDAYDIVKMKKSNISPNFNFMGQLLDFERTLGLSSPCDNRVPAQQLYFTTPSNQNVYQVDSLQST
Protocol: The phosphatase activity of MKP3 toward pNPP was measured using continuous spectrophotometric assays, either in the absence or the presence of ERK2 at a 1:1 M ratio with MKP3. Experiments were conducted at 25 °C in a reaction mixture with a total volume of 1.8 ml, containing 50 mM Mops (pH 7.0), 100 mM NaCl, and 0.1 mM EDTA. MKP3 (1 μM) was preincubated with varying concentrations of the inhibitor BCI for 5 min before initiating the reaction by adding pNPP at concentrations ranging from 0 to 14 mM. Continuous absorbance changes were recorded using a PerkinElmer LAMBDA 45 spectrophotometer equipped with a magnetic stirrer in the cuvette holder. The production of p-nitrophenol was monitored at 410 nm using an extinction coefficient of 18,000 M^-1 cm^-1.
Stock solutions of BCI (dissolved in DMSO) at different concentrations were prepared to maintain a constant DMSO concentration across all BCI concentrations in the phosphatase inhibition assays, thereby eliminating potential effects of varying DMSO levels on detection. Initial reaction rates were determined from the linear slope of progress curves, and the data were analyzed using nonlinear regression. Kinetic parameters (kcat and Km) were obtained by fitting the data to the Michaelis–Menten equation: v0 = kcat[E][S]/(Km + [S]). […]

[2] = biological target: T2, MKP5^CD (Homo sapiens, UniProt Q9Y6W6); assay: MST affinity measurement; type: binding
T2 construct: MKP5(320–467) (MKP5^CD); made in house; host or cells: Escherichia coli BL21(DE3)
T2 sequence (Q9Y6W6 320-467): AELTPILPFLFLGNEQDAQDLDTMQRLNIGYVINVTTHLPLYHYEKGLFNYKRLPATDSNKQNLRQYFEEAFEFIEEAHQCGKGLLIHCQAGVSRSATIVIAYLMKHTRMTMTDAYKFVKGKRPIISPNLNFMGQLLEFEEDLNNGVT
Protocol: (§1) MST measurements were performed using fluorescently labeled proteins and the inhibitor BCI (CAS: 1245792-51-1; TargetMol) on a Monolith instrument (NanoTemper Technologies). The RED–Tris–NTA second-generation dye was dissolved in MST buffer (20 mM Hepes, pH 7.4, 200 mM NaCl, and 0.05% Tween-20) to prepare a 5 μM stock solution. Fluorescent labeling of MKP proteins followed the standard protocol of the MO-L018 RED–Tris–NTA protein labeling kit, leveraging the His-tag–dye interaction.
The BCI compound was prepared as a 600 to 750 μM stock solution in MST buffer with 10% DMSO to enhance solubility, followed by a 16-point serial dilution. The diluted BCI solutions were thoroughly mixed with labeled MKP proteins (50 nM) at a 1:1 volume ratio, yielding a final volume of 10 μl. The reaction mixtures were incubated in the dark for 10 min at room temperature before being loaded into standard glass capillaries. Measurements were carried out on the Monolith instrument (100% LED, 40% IR laser power) with a 20 s laser on time. The normalized fluorescence values from triplicate measurements were averaged at each concentration and fitted to a 1:1 binding model using the KD model in MO.Affinity software (v3.0.5, NanoTemper Technologies) to determine the binding affinities between MKP proteins and the BCI inhibitor. […]

[3] = biological target: T3, MKP3 R89A (Homo sapiens, UniProt Q16828, R89A); assay: MST affinity of MKP3 mutant; type: binding; settings: full-length mutant
T3 construct: MKP3(1–381) (MKP3^FL); made in house; host or cells: Escherichia coli BL21(DE3)
T3 sequence (Q16828 1-381 R89A): T1 sequence (Q16828 1-381) with R89A
Protocol: as §1
(§2) The BCI compound was prepared as a 600 to 750 μM stock solution in MST buffer with 10% DMSO to enhance solubility, followed by a 16-point serial dilution. The diluted BCI solutions were thoroughly mixed with labeled MKP proteins (50 nM) at a 1:1 volume ratio, yielding a final volume of 10 μl. The reaction mixtures were incubated in the dark for 10 min at room temperature before being loaded into standard glass capillaries. Measurements were carried out on the Monolith instrument (100% LED, 40% IR laser power) with a 20 s laser on time. The normalized fluorescence values from triplicate measurements were averaged at each concentration and fitted to a 1:1 binding model using the KD model in MO.Affinity software (v3.0.5, NanoTemper Technologies) to determine the binding affinities between MKP proteins and the BCI inhibitor. The final reported Kd value represents the mean ± SD of Kd values obtained from three independent experiments, each fitted separately.
(§3) Figure S3. Affinity measurements of MKP3 mutants with BCI by MST. The binding affinities of full-length MKP3 mutants (E81G, R83G, R85G, R87G, and R89A) to BCI were determined by MST and are presented as mean ± SD (n = 3). Wild-type MKP3 (MKP3^WT) was included as a reference.

[4] = biological target: T4, MKP3 E81G (Homo sapiens, UniProt Q16828, E81G); assay: MST affinity of MKP3 mutant; type: binding; settings: full-length mutant
T4 construct: MKP3(1–381) (MKP3^FL); made in house; host or cells: Escherichia coli BL21(DE3)
T4 sequence (Q16828 1-381 E81G): T1 sequence (Q16828 1-381) with E81G
Protocol: as §1, §2, §3

**Q.** For `O=C1/C(=C/c2ccccc2)C(NC2CCCCC2)c2ccccc21` (centres unmarked) [BCI, (E)-2-benzylidene-3-(cyclohexylamino)-2,3-dihydro-1H-inden-1-one], which “ERK2-induced MKP3 activity relative to its initial level” value ([1]; BCI at molar concentration 20 times that of ERK2) is on record?
**A.** one-seventh

**Q.** What about the “effect on MKP3's Michaelis constant (Km) for pNPP” value ([1]; ERK2 at 1:1 with MKP3^FL) of the same molecule?
**A.** did not significantly alter

**Q.** And the “binding by MST” value [2]?
**A.** no interaction was detected

**Q.** What about the “affinity for BCI compared with MKP3^WT” value [3] of the same molecule?
**A.** significantly reduced affinity

**Q.** What about the “affinity for BCI compared with MKP3^WT” value [4] of the same molecule?
**A.** significantly reduced affinity
